# Assay results as given in patent publication US20240174690A1, “ANNULATED 2-AMINO-3-CYANO THIOPHENES AND DERIVATIVES FOR THE TREATMENT OF CANCER” (BOEHRINGER INGELHEIM INTERNATIONAL GMBH, priority 2021, published 2024).
# Where two headings read alike, the source gives them in different places.
# Experiments:
# [1] = tested on: AsPC-1 cells; test: AsPC-1 CTG proliferation assay (120 h) (pancreatic cancer, G12D); type: cell-based; conditions: Homo sapiens, ASPC1
# In short: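 AsPC-1 cells (KRAS G12D), 2000/well in RPMI with 10% FCS, seeded overnight, then treated with compound for 120 h at 37 °C. Viability by CellTiter-Glo luminescence as percent of DMSO control. IC50 from a four-parameter non-linear fit.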
# [2] = tested on: KRAS G12D-dependent Ba/F3 cells; test: Ba/F3 proliferation assay, KRAS G12D; type: cell-based; conditions: Mus musculus, BaF3, 72 h, AlamarBlue
# In short: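 Transforming KRAS G12 mutants replaced IL-3 dependence in retrovirally engineered Ba/F3 cells, with puromycin omitted about ten days before testing. Growth under compound was quantified with an AlamarBlue fluorescent viability stain, in duplicate, by curve fitting.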
# [3] = tested on: SAS cells; test: SAS CTG proliferation assay (120 h) (HNSCC, wt amplified); type: cell-based
# In short: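 SAS cells plated at 300 per well in DMEM:F12 with 10% FCS and left overnight, then given compounds acoustically. After 120 h exposure, viability read by CellTiter-Glo as percent of DMSO control. IC50 from four-parameter non-linear regression.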
# [4] = Caco-2 assay (permeability PappAB, PappBA, efflux ratio); type: in vitro ADME; conditions: human, Caco-2, 10 μM test compound, pH 7.4; for Papp A→B at 90 min, 10 μM: apical to basolateral; for efflux ratio at 90 min, 10 μM: efflux ratio PappBA/PappAB, read-out: Caco ER
# In short: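 Confluent Caco-2 monolayers on filter supports, 0.25% BSA in both donor and receiver buffer; transport measured a-b and b-a. After 25-30 min preincubation at 37 °C, samples at 0, 30, 60, 90 min quantified by HPLC/MS/MS. Papp from receiver amount per time, filter area and initial donor concentration; efflux ratio = PappBA/PappAB.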
# [5] = tested on: NCI-H358 cells; test: NCI-H358 CTG proliferation assay (120 h) (NSCLC, G12C); type: cell-based, human; conditions: Homo sapiens
# In short: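 NCI-H358 cells (KRAS G12C) were seeded at 2000/well (assay 1) or 200/well (assay 2) in RPMI-1640 + 10% FCS and dosed with a logarithmic series, DMSO-normalized. After 120 h, viability was read by CellTiter-Glo luminescence as percent of DMSO control, with a T0 read at dosing. IC50 came from a four-parameter fit.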
# [6] = assay 2, CTG, read-out: H358 (assay 2) IC50
# [7] = assay 1, CTG, read-out: H358 (assay 1) IC50
Compound,IC50 [1] [nM],IC50 [2] [nM],"Papp A→B at 90 min, 10 μM [4] [×10⁻⁶ cm/s]","efflux ratio at 90 min, 10 μM [4]","IC50 [5, 6] [nM]","IC50 [5, 7] [nM]",IC50 [3] [nM]
C[C@H](Oc1cc(-n2ccnc2)nc(-c2noc3c2CCC[C@@]32CCCc3sc(N)c(C#N)c32)n1)[C@@H]1C[C@@H](F)CN1C [II-120],3510,149,8,1.5,190,–,488
C[C@H](Oc1cc(N2CCNC3(CC3)C2)nc(-c2onc3c2CCC[C@@]32CCCc3sc(N)c(C#N)c32)n1)[C@@H]1CCCN1C [I-5],86,3,1.1,29,852,813,2040
C[C@H](Oc1cc(N2CCC[C@@H](O)C2)nc(-c2noc3c2CCC[C@@]32CCCc3sc(N)c(C#N)c32)n1)[C@@H]1CCCN1C [II-59],2240,35,0.9,37.2,337,–,31
C[C@H](Oc1cc(C2COCCO2)nc(-c2noc3c2CCC[C@@]32CCCc3sc(N)c(C#N)c32)n1)[C@@H]1CCCN1C (stereo partly drawn) [II-95],3320,81,12,2.2,400,–,5180
C[C@H](Oc1cc(N2CC[C@H](N(C)C)C2)nc(-c2noc3c2CCC[C@@]32CCCc3sc(N)c(C#N)c32)n1)[C@@H]1CCCN1C [II-49],511,16,4.7,10.8,1910,–,1180
C[C@H](Oc1cc(N2C[C@H](C)N[C@@H](C)C2)nc(-c2noc3c2CCC[C@@]32CCCc3sc(N)c(C#N)c32)n1)[C@@H]1CCCN1C [II-56],378,20,7.5,2.3,173,587,1430
C[C@H](Oc1cc(-n2cc(Cn3cncn3)nn2)nc(-c2noc3c2CCC[C@@]32CCCc3sc(N)c(C#N)c32)n1)[C@@H]1CCCN1C [II-124],2100,58,1,33.7,114,–,68
CNC(=O)c1cn(-c2cc(O[C@@H](C)[C@@H]3CCCN3C)nc(-c3noc4c3CCC[C@@]43CCCc4sc(N)c(C#N)c43)n2)nn1 [II-122],3350,132,7.9,3.2,823,–,889
C[C@H](Oc1cc([C@@H]2CCOC2)nc(-c2noc3c2CCC[C@@]32CCCc3sc(N)c(C#N)c32)n1)[C@@H]1CCCN1C [II-94],985,11,13,2.1,20,20,82
C[C@H](Oc1cc(-n2ccc(-c3ccccn3)n2)nc(-c2noc3c2CCC[C@@]32CCCc3sc(N)c(C#N)c32)n1)[C@@H]1CCCN1C [II-119],1320,51,1,1.1,42,–,39
C[C@H](Oc1cc(N2CCC(C#N)C2)nc(-c2noc3c2CCC[C@@]32CCCc3sc(N)c(C#N)c32)n1)[C@@H]1CCCN1C (stereo partly drawn) [II-99],3240,83,1.1,23.6,1340,–,88

# Now from value to compound, other results behind:
IC50 [1] [nM],IC50 [2] [nM],"Papp A→B at 90 min, 10 μM [4] [×10⁻⁶ cm/s]","efflux ratio at 90 min, 10 μM [4]","IC50 [5, 6] [nM]","IC50 [5, 7] [nM]",Compound,IC50 [3] [nM]
2360,198,< 9.7,–,242,–,C[C@H](Oc1cc(-c2cccc(CO)c2)nc(-c2noc3c2CCC[C@@]32CCCc3sc(N)c(C#N)c32)n1)[C@@H]1CCCN1C [II-97],646
2240,23,6.5,7.3,98,–,C[C@H](Oc1cc(-c2ccn(C)n2)nc(-c2noc3c2CCC[C@@]32CCCc3sc(N)c(C#N)c32)n1)[C@@H]1CCCN1C [II-96],148
1660,36,1.4,20.7,98,–,C[C@H](Oc1cc(-c2ccn(C[C@@H](C)O)n2)nc(-c2noc3c2CCC[C@@]32CCCc3sc(N)c(C#N)c32)n1)[C@@H]1CCCN1C [II-117],22
2820,51,–,0.5,217,–,C[C@H](Oc1cc(-n2ccc(Br)n2)nc(-c2noc3c2CCC[C@@]32CCCc3sc(N)c(C#N)c32)n1)[C@@H]1CCCN1C [II-110],68
3170,133,–,0.7,295,–,C[C@H](Oc1cc(-n2cc(C3CC3)nn2)nc(-c2noc3c2CCC[C@@]32CCCc3sc(N)c(C#N)c32)n1)[C@@H]1CCCN1C [II-118],931
4140,59,12,0.8,993,–,C[C@H](Oc1cc(-c2cnn(C)n2)nc(-c2noc3c2CCC[C@@]32CCCc3sc(N)c(C#N)c32)n1)[C@@H]1CCCN1C [II-86],502
2250,42,5.9,5.6,141,–,C[C@H](O)Cn1ccc(-c2cc(O[C@@H](C)[C@@H]3CCCN3C)nc(-c3noc4c3CCC[C@@]43CCCc4sc(N)c(C#N)c43)n2)n1 [II-112],54
2990,155,2,7,195,–,C[C@H](Oc1cc(-c2ccc(N)nc2)nc(-c2noc3c2CCC[C@@]32CCCc3sc(N)c(C#N)c32)n1)[C@@H]1CCCN1C [II-101],130
4860,103,2,23,1200,–,CC(=O)N1CC=C(c2cc(O[C@@H](C)[C@@H]3CCCN3C)nc(-c3noc4c3CCC[C@@]43CCCc4sc(N)c(C#N)c43)n2)CC1 [II-81],51
1940,47,17,1.4,131,–,C[C@H](Oc1cc(-n2cncn2)nc(-c2noc3c2CCC[C@@]32CCCc3sc(N)c(C#N)c32)n1)[C@@H]1CCCN1C [II-70],41
3240,77,5.8,1.2,111,–,Cc1cn(C)nc1-c1cc(O[C@@H](C)[C@@H]2CCCN2C)nc(-c2noc3c2CCC[C@@]32CCCc3sc(N)c(C#N)c32)n1 [II-68],623
